Data reported in US9512144B2, “Imidazothiazole sufonamides as nematicides” (BAYER CROPSCIENCE AKTIENGESELLSCHAFT, priority 2013, dated 2016).

Key:
Type in all cases: in vivo
Meloidogyne incognita [1] = assay: Meloidogyne incognita spray test (MELGIN): leaves of salad and tomato plants sprayed, gall formation 24 days after spraying
Method: Solvent: 7 parts by weight of dimethylformamide Emulsifier: alkylaryl polyglycol ether To produce a suitable preparation of active compound, 1 part by weight of active compound is mixed with the stated amount of solvent and is diluted with water, containing an emulsifier concentration of 1000 ppm, to the desired concentration. Further test concentrations are prepared by dilution with emulsifier containing water. Ammonium sulfate and rape oil methyl ester (RME) in a dosage of 1000 ppm are added to the desired concentration. Salad and tomato plants are treated by being sprayed on the leaves with the preparation of the active compound of the desired concentration, the soil surface is covered by a protection film. 3 days after spraying, a suspension containing eggs and larvae of the southern root-knot nematode (Meloidogyne incognita) is added on the soil surface. Galls develop on the roots. 24 days after spraying, the nematicidal activity is determined on the basis of the percentage of gall formation. 100% means no galls were found; 0% means the number of galls found on the roots of the treated plants was equal to that in untreated control plants. […] Test plant: Tomato, Lycopersicon esculentum Test plant: Salad, Lactuca sativa

Meloidogyne incognita [2] = assay: Meloidogyne incognita test (MELGIN): sand, salad seeds, gall formation after 14 days; details: application rate 20 ppm, salad seedlings in sand
Method: Solvent: 125.0 parts by weight of acetone To produce a suitable preparation of active compound, 1 part by weight of active compound is mixed with the stated amount of solvent, and the concentrate is diluted with water to the desired concentration. Vessels are filled with sand, a solution of the active ingredient, a suspension containing eggs and larvae of the southern root-knot nematode (Meloidogyne incognita) and salad seeds. The salad seeds germinate and the seedlings grow. Galls develop in the roots. After 14 days the nematicidal activity is determined on the basis of the percentage of gall formation. 100% means that no galls were found; 0% means that the number of galls found on the roots of the treated plants was equal to that in untreated control plants.

Meloidogyne incognita [3] = assay: Meloidogyne incognita test: compound solution poured into pots with soil (loamy sand), salad seeds, gall formation after 21 days; details: salad in soil
Method: Solvent: 7 parts by weight of dimethylformamide Emulsifier: 2.5 parts by weight of alkylarylpolyglycolether To produce a suitable preparation of active compound, 1 part by weight of active compound is mixed with the stated amount of solvent and emulsifier and is diluted with water to the desired concentration. In the calculation of the concentration the soil volume has to be included. […] Further test concentrations are prepared by dilution with water. The compound solution is poured into pots filled with soil (loamy sand). A suspension containing eggs and larvae of the southern root-knot nematode (Meloidogyne incognita) is added, salad seeds are spread on the soil surface and covered with quartz sand. The salad seeds germinate and the seedlings grow. Galls develop on the roots. After 21 days the nematicidal activity is determined on the basis of the percentage of gall formation. 100% means no galls were found; 0% means the number of galls found on the roots of the treated plants was equal to that in untreated control plants.

[4] = test plant Salad, Lactuca sativa, leaf spray 100 ppm
[5] = test plant Salad, Lactuca sativa, leaf spray 1000 ppm
[6] = test plant Salad, Lactuca sativa, leaf spray 2500 ppm
[7] = test plant Tomato, Lycopersicon esculentum, leaf spray 100 ppm
[8] = test plant Tomato, Lycopersicon esculentum, leaf spray 1000 ppm
[9] = test plant Tomato, Lycopersicon esculentum, leaf spray 2500 ppm

SMILES	nematicidal activity on the basis of the percentage of gall formation (100% = no galls) (Meloidogyne incognita [1]; [4]) [%]	nematicidal activity on the basis of the percentage of gall formation (100% = no galls) (Meloidogyne incognita [1]; [5]) [%]	nematicidal activity on the basis of the percentage of gall formation (100% = no galls) (Meloidogyne incognita [1]; [6]) [%]	nematicidal activity on the basis of the percentage of gall formation (100% = no galls) (Meloidogyne incognita [1]; [7]) [%]	nematicidal activity on the basis of the percentage of gall formation (100% = no galls) (Meloidogyne incognita [1]; [8]) [%]	nematicidal activity on the basis of the percentage of gall formation (100% = no galls) (Meloidogyne incognita [1]; [9]) [%]	nematicidal activity on the basis of the percentage of gall formation (100% = no galls) (Meloidogyne incognita [2]) [%]	nematicidal activity on the basis of the percentage of gall formation (100% = no galls) (Meloidogyne incognita [3]; application rate 2 ppm) [%]	nematicidal activity on the basis of the percentage of gall formation (100% = no galls) (Meloidogyne incognita [3]; application rate 8 ppm) [%]	nematicidal activity on the basis of the percentage of gall formation (100% = no galls) (Meloidogyne incognita [3]; application rate 1 ppm) [%]	nematicidal activity on the basis of the percentage of gall formation (100% = no galls) (Meloidogyne incognita [3]; application rate 4 ppm) [%]
O=C(NS(=O)(=O)c1cc(C(F)(F)F)ccc1Cl)c1cn2cc(C(F)(F)F)sc2n1 [Example I-1-4]	0	20	75	25	35	98	100	97	–	–	–
Cc1c(C(F)(F)F)sc2nc(C(=O)NS(=O)(=O)c3c(Cl)cccc3Cl)cn12 [Example I-1-158]	15	75	80	0	0	50	90	98	–	–	–
COc1ccc(Cl)c(S(=O)(=O)NC(=O)c2cn3c(C)c(C(F)(F)F)sc3n2)c1 [Example I-1-159]	25	60	95	0	75	95	100	95	–	–	–
Cc1c(C(F)(F)C(F)(F)F)sc2nc(C(=O)NS(=O)(=O)c3c(Cl)cccc3Cl)cn12 [Example I-1-254]	–	–	–	–	–	–	100	–	85	–	–
Cc1c(C(F)(F)C(F)(F)F)sc2nc(C(=O)NS(=O)(=O)c3ccccc3Cl)cn12 [Example I-1-255]	–	–	–	–	–	–	100	–	100	–	–
CCOc1ccc(Cl)c(S(=O)(=O)NC(=O)c2cn3cc(C(F)(F)F)sc3n2)c1 [Example I-1-286]	–	–	–	–	–	–	100	–	–	85	–
Cc1c(C(F)(F)F)sc2nc(C(=O)NS(=O)(=O)c3cc(C(F)(F)F)ccc3Cl)cn12 [Example I-1-289]	–	–	–	–	–	–	100	–	–	–	85
Cc1ccc(C)c(S(=O)(=O)NC(=O)c2cn3c(C)c(C(F)(F)F)sc3n2)c1 [Example I-1-291]	–	–	–	–	–	–	100	–	–	–	85
